Activity calls are given as the source filed them. How the calls were made is not given here.
Tested on: CCRIS mutagenicity, Ames/micronucleus/aberration tests
Test: CCRIS mutagenicity studies
[1] = Test System: AMES SALMONELLA TYPHIMURIUM, Strain/Indicator: TA98, Metabolic Activation: NONE, Method: PREINCUBATION
[2] = Test System: AMES SALMONELLA TYPHIMURIUM, Strain/Indicator: TA98, Metabolic Activation: NONE, Method: STANDARD PLATE
[3] = Test System: AMES SALMONELLA TYPHIMURIUM, Strain/Indicator: TA98, Metabolic Activation: RAT, LIVER, S-9, AROCLOR 1254, Method: STANDARD PLATE
[4] = Test System: AMES SALMONELLA TYPHIMURIUM, Strain/Indicator: TA100, Metabolic Activation: NONE, Method: PREINCUBATION
[5] = Test System: AMES SALMONELLA TYPHIMURIUM, Strain/Indicator: TA100, Metabolic Activation: NONE, Method: STANDARD PLATE
[6] = Test System: AMES SALMONELLA TYPHIMURIUM, Strain/Indicator: TA100, Metabolic Activation: RAT, LIVER, S-9, AROCLOR 1254, Method: STANDARD PLATE
[7] = Test System: AMES SALMONELLA TYPHIMURIUM, Strain/Indicator: TA1535, Metabolic Activation: NONE, Method: STANDARD PLATE
[8] = Test System: AMES SALMONELLA TYPHIMURIUM, Strain/Indicator: TA1535, Metabolic Activation: RAT, LIVER, S-9, AROCLOR 1254, Method: STANDARD PLATE
[9] = Test System: AMES SALMONELLA TYPHIMURIUM, Strain/Indicator: TA1537, Metabolic Activation: NONE, Method: STANDARD PLATE
[10] = Test System: AMES SALMONELLA TYPHIMURIUM, Strain/Indicator: TA1537, Metabolic Activation: RAT, LIVER, S-9, AROCLOR 1254, Method: STANDARD PLATE
[11] = Test System: AMES SALMONELLA TYPHIMURIUM, Strain/Indicator: TA1538, Metabolic Activation: NONE, Method: STANDARD PLATE
[12] = Test System: AMES SALMONELLA TYPHIMURIUM, Strain/Indicator: TA1538, Metabolic Activation: RAT, LIVER, S-9, AROCLOR 1254, Method: STANDARD PLATE

Measured: mutagenic call

CN(CCO)CCO
inactive: Test System: AMES SALMONELLA TYPHIMURIUM, Strain/Indicator: TA98, Metabolic Activation: HAMSTER, LIVER, S-9, AROCLOR 1254 (10%), Method: PREINCUBATION inactive; negative | [1] inactive; negative | [2] inactive; negative | Test System: AMES SALMONELLA TYPHIMURIUM, Strain/Indicator: TA98, Metabolic Activation: RAT, LIVER, S-9, AROCLOR 1254 (10%), Method: PREINCUBATION inactive; negative | [3] inactive; negative | Test System: AMES SALMONELLA TYPHIMURIUM, Strain/Indicator: TA100, Metabolic Activation: HAMSTER, LIVER, S-9, AROCLOR 1254 (10%), Method: PREINCUBATION inactive; negative | [4] inactive; negative | [5] inactive; negative | Test System: AMES SALMONELLA TYPHIMURIUM, Strain/Indicator: TA100, Metabolic Activation: RAT, LIVER, S-9, AROCLOR 1254 (10%), Method: PREINCUBATION inactive; negative | [6] inactive; negative | Test System: AMES SALMONELLA TYPHIMURIUM, Strain/Indicator: TA1535, Metabolic Activation: HAMSTER, LIVER, S-9, AROCLOR 1254 (10%), Method: PREINCUBATION inactive; negative | Test System: AMES SALMONELLA TYPHIMURIUM, Strain/Indicator: TA1535, Metabolic Activation: NONE, Method: PREINCUBATION inactive; negative | [7] inactive; negative | Test System: AMES SALMONELLA TYPHIMURIUM, Strain/Indicator: TA1535, Metabolic Activation: RAT, LIVER, S-9, AROCLOR 1254 (10%), Method: PREINCUBATION inactive; negative | [8] inactive; negative | Test System: AMES SALMONELLA TYPHIMURIUM, Strain/Indicator: TA1537, Metabolic Activation: HAMSTER, LIVER, S-9, AROCLOR 1254 (10%), Method: PREINCUBATION inactive; negative | Test System: AMES SALMONELLA TYPHIMURIUM, Strain/Indicator: TA1537, Metabolic Activation: NONE, Method: PREINCUBATION inactive; negative | [9] inactive; negative | Test System: AMES SALMONELLA TYPHIMURIUM, Strain/Indicator: TA1537, Metabolic Activation: RAT, LIVER, S-9, AROCLOR 1254 (10%), Method: PREINCUBATION inactive; negative | [10] inactive; negative | [11] inactive; negative | [12] inactive; negative | Test System: CHINESE HAMSTER OVARY, Strain/Indicator: CHO-K1-BH4, Metabolic Activation: NONE inactive; negative | Test System: CHINESE HAMSTER OVARY, Strain/Indicator: CHO-K1-BH4, Metabolic Activation: RAT, LIVER, S-9, AROCLOR 1254 inactive; negative

CC(=O)Nc1ccc(-c2ccc(N)cc2)cc1
inactive: Test System: Ames Salmonella typhimurium, Strain/Indicator: TA102, Metabolic Activation: None, Method: Preincubation inactive; negative
active: Test System: AMES SALMONELLA TYPHIMURIUM, Strain/Indicator: TA1538, Metabolic Activation: GUINEA PIG, LIVER, HEPATOCYTES, Method: PREINCUBATION active; positive | Test System: AMES SALMONELLA TYPHIMURIUM, Strain/Indicator: TA1538, Metabolic Activation: GUINEA PIG, LIVER, S-9, ACETYL-COA (0.1 OR 1 MILLIMOLAR), Method: PREINCUBATION active; positive | Test System: AMES SALMONELLA TYPHIMURIUM, Strain/Indicator: TA1538, Metabolic Activation: GUINEA PIG, LIVER, S-9, Method: PREINCUBATION active; positive | Test System: AMES SALMONELLA TYPHIMURIUM, Strain/Indicator: TA1538, Metabolic Activation: HAMSTER, LIVER, HEPATOCYTES, Method: PREINCUBATION active; positive | Test System: AMES SALMONELLA TYPHIMURIUM, Strain/Indicator: TA1538, Metabolic Activation: HAMSTER, LIVER, S-9, ACETYL-COA (0.1 OR 1 MILLIMOLAR), Method: PREINCUBATION active; positive | Test System: AMES SALMONELLA TYPHIMURIUM, Strain/Indicator: TA1538, Metabolic Activation: HAMSTER, LIVER, S-9, Method: PREINCUBATION active; positive | Test System: AMES SALMONELLA TYPHIMURIUM, Strain/Indicator: TA1538, Metabolic Activation: RAT, LIVER, HEPATOCYTES, Method: PREINCUBATION active; positive | Test System: AMES SALMONELLA TYPHIMURIUM, Strain/Indicator: TA1538, Metabolic Activation: RAT, LIVER, S-9, ACETYL-COA (0.1 OR 1 MILLIMOLAR), Method: PREINCUBATION active; positive | Test System: AMES SALMONELLA TYPHIMURIUM, Strain/Indicator: TA1538, Metabolic Activation: RAT, LIVER, S-9, Method: PREINCUBATION active; positive | Test System: Ames Salmonella typhimurium, Strain/Indicator: TA102, Metabolic Activation: Rat, liver, S-9, Aroclor 1254, 4%, Method: Preincubation active; positive

C=COc1ccccc1
inactive: [2] inactive; negative | Test System: AMES SALMONELLA TYPHIMURIUM, Strain/Indicator: TA98, Metabolic Activation: RAT LIVER MICROSOMES, Method: STANDARD PLATE inactive; negative | [7] inactive; negative
active: Test System: AMES SALMONELLA TYPHIMURIUM, Strain/Indicator: TA1535, Metabolic Activation: RAT LIVER MICROSOMES, Method: STANDARD PLATE active; positive

CCCCC[N+](=O)[O-]
inactive: [1] inactive; negative | Test System: AMES SALMONELLA TYPHIMURIUM, Strain/Indicator: TA98, Metabolic Activation: RAT, LIVER, S-9, AROCLOR, Method: PREINCUBATION inactive; negative | [4] inactive; negative | Test System: AMES SALMONELLA TYPHIMURIUM, Strain/Indicator: TA100, Metabolic Activation: RAT, LIVER, S-9, AROCLOR, Method: PREINCUBATION inactive; negative | Test System: AMES SALMONELLA TYPHIMURIUM, Strain/Indicator: TA102, Metabolic Activation: NONE, Method: PREINCUBATION inactive; negative | Test System: AMES SALMONELLA TYPHIMURIUM, Strain/Indicator: TA102, Metabolic Activation: RAT, LIVER, S-9, AROCLOR, Method: PREINCUBATION inactive; negative | Test System: UDS RAT HEPATOCYTES, Strain/Indicator: THY INCORP, Metabolic Activation: NONE inactive; negative

O=[N+]([O-])c1cc2c3c(c1)CCc1cccc(c1-3)CC2
active: Test System: AMES SALMONELLA TYPHIMURIUM, Strain/Indicator: TA98(1,8-DNP6), Metabolic Activation: NONE, Method: STANDARD PLATE active; positive | Test System: AMES SALMONELLA TYPHIMURIUM, Strain/Indicator: TA98(NR), Metabolic Activation: NONE, Method: STANDARD PLATE active; positive | [2] active; positive

CCOC(=O)Nc1ccc(SC[C@@H]2CO[C@@](Cn3ccnc3)(c3ccc(Cl)cc3Cl)O2)cc1
active: End Point: IN VIVO MICRONUCLEUS, Test System: BLOOD ERYTHROCYTES, Species: MOUSE, Strain/Sex: CD-1/MALE, Route: ORAL active; positive (at 48 and 72 hr at higher dose)

O=[N+]([O-])c1ccccc1C(F)(F)F
inactive: [2] inactive; negative | [3] inactive; negative | [5] inactive; negative | [6] inactive; negative | [7] inactive; negative | [8] inactive; negative | [9] inactive; negative | [10] inactive; negative | [11] inactive; negative | [12] inactive; negative

COc1nsc2cc(OCC3CO3)ccc12 (centres undefined)
active: [5] active; positive

c1ccc2c3c4c(cc5ccccc5c4cc2c1)C1=C3CCCC1
active: Test System: AMES SALMONELLA TYPHIMURIUM, Strain/Indicator: TA100, Metabolic Activation: RAT, LIVER, S-9, 3-METHYLCHOLANTHRENE, Method: STANDARD PLATE active; positive

CCCCN(N=O)/C(C=O)=N/O
active: [7] active; positive | Test System: E. COLI, Strain/Indicator: WP2 (HCR-), Metabolic Activation: NONE, Method: STANDARD PLATE active; positive

Reference: PubChem BioAssay AID1259407 (Chemical Carcinogenesis Research Information System (CCRIS), 2018)
